Laboratory results: the CheMixHub viscosity set
± gives the uncertainty stated by the source.

Test: xn = mol fraction of the nth substance listed

CCCCCCCCCC(=O)OC + CCCO
viscosity [mPa·s], 100 kPa
Settings | x1 = 0.0999 | x1 = 0.1999 | x1 = 0.2999 | x1 = 0.3995 | x1 = 0.4995 | x1 = 0.599 | x1 = 0.6999 | x1 = 0.8002 | x1 = 0.8976
298.15 K | 1.745 ± 0.11 | 1.671 ± 0.1 | 1.648 ± 0.099 | 1.652 ± 0.1 | 1.676 ± 0.1 | 1.702 ± 0.1 | 1.746 ± 0.11 | 1.788 ± 0.11 | 1.859 ± 0.11
303.15 K | 1.566 ± 0.095 | 1.506 ± 0.091 | 1.487 ± 0.09 | 1.495 ± 0.09 | 1.515 ± 0.091 | 1.547 ± 0.093 | 1.583 ± 0.096 | 1.622 ± 0.098 | 1.692 ± 0.1
308.15 K | 1.408 ± 0.085 | 1.361 ± 0.082 | 1.35 ± 0.081 | 1.36 ± 0.082 | 1.38 ± 0.083 | 1.413 ± 0.085 | 1.442 ± 0.087 | 1.482 ± 0.09 | 1.546 ± 0.093
313.15 K | 1.271 ± 0.077 | 1.236 ± 0.075 | 1.228 ± 0.074 | 1.241 ± 0.075 | 1.262 ± 0.076 | 1.295 ± 0.078 | 1.325 ± 0.08 | 1.36 ± 0.082 | 1.418 ± 0.086
318.15 K | 1.151 ± 0.069 | 1.124 ± 0.068 | 1.124 ± 0.068 | 1.136 ± 0.069 | 1.161 ± 0.07 | 1.19 ± 0.072 | 1.216 ± 0.073 | 1.252 ± 0.076 | 1.304 ± 0.079
323.15 K | 1.045 ± 0.063 | 1.027 ± 0.062 | 1.031 ± 0.062 | 1.045 ± 0.063 | 1.067 ± 0.064 | 1.097 ± 0.066 | 1.126 ± 0.068 | 1.158 ± 0.07 | 1.207 ± 0.073

ClC(Cl)Cl + C1CCCCC1
298.15 K, 101 kPa
Settings | viscosity [mPa·s]
x1 = 0.2026 | 0.7795 ± 0.0098
x1 = 0.3543 | 0.6917 ± 0.0087
x1 = 0.4317 | 0.665 ± 0.0083
x1 = 0.5593 | 0.6217 ± 0.0078
x1 = 0.6464 | 0.6057 ± 0.0076
x1 = 0.7738 | 0.5875 ± 0.0074
x1 = 0.886 | 0.5657 ± 0.0071

CCCCCCCCCCCCCCCC + CCCCCCCCCC
Settings | viscosity [mPa·s]
298.15 K, 101.33 kPa, x2 = 0.1051 | 2.749 ± 0.033
298.15 K, 101.33 kPa, x2 = 0.2075 | 2.481 ± 0.03
298.15 K, 101.33 kPa, x2 = 0.3045 | 2.2 ± 0.027
298.15 K, 101.33 kPa, x2 = 0.4045 | 1.976 ± 0.024
298.15 K, 101.33 kPa, x2 = 0.5081 | 1.733 ± 0.021
298.15 K, 101.33 kPa, x2 = 0.6095 | 1.53 ± 0.019
298.15 K, 101.33 kPa, x2 = 0.7051 | 1.336 ± 0.017
298.15 K, 101.33 kPa, x2 = 0.8037 | 1.17 ± 0.015
298.15 K, 101.33 kPa, x2 = 0.9041 | 0.9885 ± 0.013
313.15 K, 100 kPa, x2 = 0.35 | 1.6 ± 0.07
313.15 K, 100 kPa, x2 = 0.61 | 1.18 ± 0.052
313.15 K, 100 kPa, x2 = 0.83 | 0.9 ± 0.039

FC(F)Cl + CC(F)F
viscosity [mPa·s], 101 kPa
Settings | 293.35 K | 293.45 K | 312.95 K | 313.25 K
x1 = 0.159 | – | 0.178 ± 0.0048 | 0.1422 ± 0.0039 | –
x1 = 0.34 | – | 0.1749 ± 0.0048 | – | 0.1424 ± 0.0039
x1 = 0.534 | 0.1805 ± 0.0049 | – | – | 0.1485 ± 0.004

O=CC(Cl)(Cl)Cl + CO
313.15 K, 101 kPa
Settings | viscosity [mPa·s]
x1 = 0.0365 | 0.5111 ± 0.014
x1 = 0.1162 | 0.9078 ± 0.024
x1 = 0.2408 | 2.096 ± 0.055
x1 = 0.3032 | 2.491 ± 0.067
x1 = 0.4207 | 6.085 ± 0.16
x1 = 0.444 | 6.591 ± 0.17
x1 = 0.4731 | 7.389 ± 0.19
x1 = 0.5032 | 7.028 ± 0.19
x1 = 0.5958 | 3.182 ± 0.087
x1 = 0.7159 | 1.792 ± 0.048
x1 = 0.8416 | 1.198 ± 0.032
x1 = 0.9603 | 0.8738 ± 0.023

ClC(Cl)Cl + Cc1ccccc1
298.15 K
Settings | viscosity [mPa·s]
101 kPa, x1 = 0.1361 | 0.5653 ± 0.0071
101 kPa, x1 = 0.2872 | 0.5753 ± 0.0073
101 kPa, x1 = 0.4067 | 0.5833 ± 0.0073
101 kPa, x1 = 0.554 | 0.5861 ± 0.0074
101 kPa, x1 = 0.6211 | 0.584 ± 0.0074
101 kPa, x1 = 0.6656 | 0.58 ± 0.0073
101 kPa, x1 = 0.8806 | 0.5593 ± 0.0071
101.33 kPa, x1 = 0.0912 | 0.5573 ± 0.0056
101.33 kPa, x1 = 0.1727 | 0.5608 ± 0.0057
101.33 kPa, x1 = 0.2562 | 0.5636 ± 0.0057
101.33 kPa, x1 = 0.3481 | 0.5661 ± 0.0057
101.33 kPa, x1 = 0.5471 | 0.5687 ± 0.0057
101.33 kPa, x1 = 0.6862 | 0.5638 ± 0.0057
101.33 kPa, x1 = 0.8428 | 0.5531 ± 0.0056
101.33 kPa, x1 = 0.9237 | 0.545 ± 0.0055
